{"source": "patent US8273778B2", "about": "“Inhibitors of UDP-galactopyranose mutase thwart mycobacterial growth” (Wisconsin Alumni Research Foundation, priority 2008, dated 2012)", "key": {"[1]": {"molecular_target": "T1, UGM from Mycobacterium tuberculosis (UGMmyco) (Mycobacterium tuberculosis, UniProt P9WIQ1)", "T1 sequence (P9WIQ1 whole entry)": "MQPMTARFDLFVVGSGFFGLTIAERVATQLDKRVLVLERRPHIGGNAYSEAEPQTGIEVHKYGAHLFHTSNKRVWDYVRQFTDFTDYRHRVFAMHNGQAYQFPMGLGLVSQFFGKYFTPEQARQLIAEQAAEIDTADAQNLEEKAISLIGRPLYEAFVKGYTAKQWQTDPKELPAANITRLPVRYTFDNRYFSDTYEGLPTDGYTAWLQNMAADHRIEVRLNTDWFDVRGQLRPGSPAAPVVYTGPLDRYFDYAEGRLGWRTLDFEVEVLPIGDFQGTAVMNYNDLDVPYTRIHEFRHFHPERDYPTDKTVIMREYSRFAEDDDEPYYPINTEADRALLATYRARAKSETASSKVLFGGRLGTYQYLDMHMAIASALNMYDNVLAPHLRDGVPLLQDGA", "assay": "Fluorescence polarization binding / inhibition assay, UGMmyco", "procedure": "(§1) Serial dilutions of dialyzed UGM (maximum concentration was typically 30 μM) was incubated with 15 nM of fluorescent compounds 5a-5f, 6 or 11 in 50 mM sodium phosphate buffer, pH 7.0 at 25° C. Final volumes were 30 μL in 384 well black microtiter plates (Costar). Fluorescence polarization was analyzed using a Wallac EnVision plate reader. Data were fit to y=m1+((m2−m1)*x^m3)/(m4^m3+x^m3); m2=maximum FP signal, m1=minimum FP signal, m3=slope, m4=binding constant (KaleidaGraph, Synergy Software).\nThe fluorescence polarization inhibition assay was performed as previously described (22). Reactions contained 580 nM UGMmyco or 500 nM UGMkleb and 15 nM of the fluorescent probe 5c in 50 mM sodium phosphate buffer, pH 7.0 at 25° C. Final volumes were 30 μL in 384 well black microtiter plates (Costar). Serial dilutions of UDP, 4d or 7 were added to the wells. Fluorescence polarization was analyzed using a Wallac EnVision plate reader. Data were fit to y=m1+((m2−m1)*x^m3)/(m4^m3+x^m3); m2=maximum FP signal, m1=minimum FP signal, m3=slope, m4=apparent binding constant (KaleidaGraph, Synergy Software). […]. FIGS. 13A and 13B are graphs illustrating determination of Kd for compound II for UGMmyco (FIG. 13A) and UGMkleb (FIG. 13B)."}, "[2]": {"molecular_target": "T2, UGM from Klebsiella pneumoniae (UGMkleb) (Klebsiella pneumoniae, UniProt Q48485)", "T2 sequence (Q48485 24-384)": "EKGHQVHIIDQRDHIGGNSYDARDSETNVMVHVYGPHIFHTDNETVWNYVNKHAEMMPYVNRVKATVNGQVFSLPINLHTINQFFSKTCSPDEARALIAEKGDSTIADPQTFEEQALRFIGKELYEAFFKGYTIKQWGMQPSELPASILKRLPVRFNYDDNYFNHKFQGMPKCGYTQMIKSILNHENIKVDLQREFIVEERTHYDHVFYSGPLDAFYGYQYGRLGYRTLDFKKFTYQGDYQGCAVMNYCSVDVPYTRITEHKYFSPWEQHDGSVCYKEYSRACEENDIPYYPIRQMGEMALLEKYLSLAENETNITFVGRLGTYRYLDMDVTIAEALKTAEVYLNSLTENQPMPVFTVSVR", "assay": "Fluorescence polarization binding / inhibition assay, UGMkleb", "procedure": "as §1\nThe fluorescence polarization inhibition assay was performed as previously described (22). Reactions contained 580 nM UGMmyco or 500 nM UGMkleb and 15 nM of the fluorescent probe 5c in 50 mM sodium phosphate buffer, pH 7.0 at 25° C. Final volumes were 30 μL in 384 well black microtiter plates (Costar). Serial dilutions of UDP, 4d or 7 were added to the wells. Fluorescence polarization was analyzed using a Wallac EnVision plate reader. Data were fit to y=m1+((m2−m1)*x^m3)/(m4^m3+x^m3); m2=maximum FP signal, m1=minimum FP signal, m3=slope, m4=apparent binding constant (KaleidaGraph, Synergy Software). To determine Kd values, the apparent binding constant was then subjected to Kapp=Kd(1+(I)/KI), where I=concentration of the fluorescent probe and KI=binding affinity of the fluorescent probe to UGM. […] FIGS. 13A and 13B are graphs illustrating determination of Kd for compound II for UGMmyco (FIG. 13A) and UGMkleb (FIG. 13B)."}, "UGMmyco": {"molecular_target": "UGMmyco (Mycobacterium tuberculosis, UniProt P9WIQ1)", "sequence (P9WIQ1 whole entry)": "as the sequence (P9WIQ1 whole entry) above", "assay": "HPLC assay of UGMmyco conversion of UDP-galactofuranose to UDP-galactopyranose (inhibition, kinetics)", "assay_type": "biochemical", "conditions": "initial rates at various UDP-Galf, 25 or 50 μM inhibitor, 11 nM UGMmyco, pH 7", "procedure": "UGMmyco inhibition was assessed using a previously described HPLC assay to measure the extent of enzymatic conversion of UDP-galactofuranose to UDP-galactopyranose. (Carlson, E. E.; May, J. F.; Kiessling, L. L. Chem. Biol. 2006, 13, 825-837.)\nThe relative activity of UGMmyco in the presence of DMSO alone was compared to that in the presence of 50 μM of selected aminothiazoles. Enzymatic reaction conditions were as follows: 50 μM UDP-Galf, 4 μM UGMmyco and 20 mM DTT in 4% DMSO v/v. The mean activities of UGMmyco in the presence of the aminothiazoles are presented in order of decreasing binding affinities to highlight the relationship between enzyme inhibition and binding affinity.\nThe inhibition curves look similar to the binding curves depicted in FIGS. 5A and 5B. […] In the graphs of these figures, conversion is the amount of UDP-Galp formed divided by the amount of total UDP-Gal (UDP-Galp+UDP-Galf). The data were fit to the equation as previously described. (Soltero-Higgin, M.; Carlson, E. E.; Phillips, J. H.; Kiessling, L. L., Identification of inhibitors for UDP-galactopyranose mutase. J. Am. Chem. Soc. 2004, 126, 10532-10533.)\nFor inhibitor kinetic assays, the initial rate of UGMmyco was determined at various UDP-Galf concentrations in the presence of either DMSO alone (4% v/v), 25 μM inhibitor, or 50 μM inhibitor. […] Product formation was analyzed using a HPLC-based assay. […]"}, "UGM": {"test_system": "UGM", "assay": "Fluorescence polarization assay, UGM homolog not specified (UGMkleb or UGMmyco)", "assay_type": "binding", "conditions": "concentrations up to 34 μM of either UGMmyco or UGMkleb"}, "[3]": {"molecular_target": "T1, UGM from Mycobacterium tuberculosis (UGMmyco)", "conditions": "previous work; read-out: affinity of the probe for UGMmyco; cited from earlier work"}, "[4]": {"molecular_target": "T2, UGM from Klebsiella pneumoniae (UGMkleb)", "conditions": "previous work; read-out: affinity of the probe for UGMkleb; cited from earlier work"}, "[5]": {"conditions": "Kd (UMGmyco) [μM], Table 2, 50 mM sodium phosphate pH 7.0, 25° C."}, "[6]": {"conditions": "Table 2, 50 mM sodium phosphate pH 7.0, 25° C., read-out: Kd (UMGkleb)"}, "[7]": {"conditions": "Table 1, UDP-fluorescein conjugates by linker length n, read-out: UGMmyco Kd"}, "[8]": {"conditions": "Table 2, 50 mM sodium phosphate pH 7.0, 25° C., read-out: Kd (UMGmyco)"}, "[9]": {"conditions": "Kd (UMGkleb) [μM], Table 2, 50 mM sodium phosphate pH 7.0, 25° C."}}, "note": "Read-outs that look alike come from different tables or passages of the source."}
{"compound": "O=C(O)c1cc(NC(=S)NCCOCCOCCOP(=O)(O)OP(=O)(O)OCC2OC(n3ccc(=O)[nH]c3=O)C(O)C2O)ccc1-c1c2ccc(=O)cc-2oc2cc(O)ccc12", "note": "(stereo not drawn) [Compound 5f, UDP-3,6-dioxa-octanolamine-fluorescein conjugate]", "values": [{"measurement": "Kd", "setting": "[1]; [5]", "result": "0.575 ± 0.016", "unit": "µM"}, {"measurement": "fold lower affinity than compound 5d", "setting": "[1]; UGMmyco, relative to 5d (eight methylene linker)", "result": "more than 10 fold"}, {"measurement": "fold greater affinity than UDP", "setting": "[1]; UGMmyco, relative to UDP", "result": 20, "unit": "fold"}, {"measurement": "Kd", "setting": "[2]; [6]", "result": "0.767 ± 0.017", "unit": "µM"}]}
{"compound": "UDP-butanolamine-fluorescein conjugate [Compound 5b]", "values": [{"measurement": "Kd", "setting": "[1]; [7]", "result": 2.5, "unit": "µM"}, {"measurement": "Kd", "setting": "[1]; [8]", "result": "2.51 ± 0.28", "unit": "µM"}, {"measurement": "Kd", "setting": "[2]; [6]", "result": "1.94 ± 0.15", "unit": "µM"}]}
{"compound": "O=c1ccn([C@@H]2O[C@H](COP(=O)(O)OP(=O)(O)O)[C@@H](O)[C@H]2O)c(=O)[nH]1", "note": "[UDP, uridine 5′-diphosphate, reference compound]", "values": [{"measurement": "Kd", "setting": "[1]; [5]", "result": "15.1 ± 1.7", "unit": "µM"}, {"measurement": "Kd", "setting": "[1]; Kd / affinity for UGMmyco", "result": 15, "unit": "µM"}, {"measurement": "Kd", "setting": "[2]; [6]", "result": "26 ± 1.7", "unit": "µM"}, {"measurement": "Kd", "setting": "[2]; read-out: Kd / affinity for UGMkleb", "result": 26, "unit": "µM"}]}
{"compound": "O=C(O)C(Cc1ccc(Cl)cc1)Nc1nc(-c2ccc(Cl)cc2Cl)cs1", "note": "(stereo not drawn)", "values": [{"measurement": "Ki", "setting": "UGMmyco", "result": 5300, "unit": "nM"}]}
{"compound": "O=C(O)c1cc(NC(=S)NCCOP(=O)(O)OP(=O)(O)OCC2OC(n3ccc(=O)[nH]c3=O)C(O)C2O)ccc1-c1c2ccc(=O)cc-2oc2cc(O)ccc12", "note": "(stereo not drawn) [Compound 5a, UDP-ethanolamine-fluorescein conjugate]", "values": [{"measurement": "Kd", "setting": "[1]; [5]", "result": "> 30", "unit": "µM"}, {"measurement": "Kd", "setting": "[1]; UGMmyco Kd (μM), Table 1, UDP-fluorescein conjugates by linker length n", "result": "> 30", "unit": "µM"}, {"measurement": "Kd", "setting": "[2]; [6]", "result": "> 30", "unit": "µM"}]}
{"compound": "O=C(O)c1cc(NC(=S)NCCOCCOCCOCCOP(=O)(O)OP(=O)(O)OCC2OC(n3ccc(=O)[nH]c3=O)C(O)C2O)ccc1-c1c2ccc(=O)cc-2oc2cc(O)ccc12", "note": "(stereo not drawn) [Compound 5g, UDP-3,6,9-trioxa-undecanolamine-fluorescein conjugate]", "values": [{"measurement": "Kd", "setting": "[1]; [5]", "result": "1.07 ± 0.1", "unit": "µM"}, {"measurement": "Kd", "setting": "[2]; [6]", "result": "1.2 ± 0.14", "unit": "µM"}]}
{"compound": "O=c1ccn(C2OC(COP(=O)([O-])OP(=O)(O)OCCCCCCCCNC(=S)Nc3cccc4ccccc34)C(O)C2O)c(=O)[nH]1.[Na+]", "note": "(stereo not drawn) [Compound 7, UDP-octanolamine-naphthyl conjugate]", "values": [{"measurement": "Kd", "setting": "[1]; [5]", "result": "0.61 ± 0.109", "unit": "µM"}, {"measurement": "Kd", "setting": "[2]; [6]", "result": "0.583 ± 0.036", "unit": "µM"}]}
{"compound": "UDP-octanolamine-fluorescein conjugate [Compound 5d]", "values": [{"measurement": "Kd", "setting": "[1]; [7]", "result": 0.054, "unit": "µM"}, {"measurement": "Kd", "setting": "[1]; [8]", "result": "0.054 ± 0.006", "unit": "µM"}, {"measurement": "Kd", "setting": "[2]; [6]", "result": "0.045 ± 0.002", "unit": "µM"}]}
{"compound": "O=C(O)c1cc(NC(=S)NCCCCCCCCO)ccc1-c1c2ccc(=O)cc-2oc2cc(O)ccc12", "note": "[Compound 6, Octanolamine-fluorescein conjugate]", "values": [{"measurement": "Kd", "setting": "[1]; [8]", "result": "> 30", "unit": "µM"}, {"measurement": "binding of fluorophore alone", "setting": "UGM", "result": "no binding was observed"}, {"measurement": "Kd", "setting": "[2]; [9]", "result": "> 30", "unit": "µM"}]}
{"compound": "O=C(O)c1cc(NC(=S)NCCCCCCCCc2ccc(-c3csc(NC(Cc4ccc(Cl)cc4)C(=O)O)n3)cc2)ccc1-c1c2ccc(=O)cc-2oc2cc(O)ccc12", "note": "(stereo not drawn) [Compound 11, Aminothiazole-fluorescein conjugate]", "values": [{"measurement": "Kd", "setting": "[1]; [8]", "result": "0.295 ± 0.066", "unit": "µM"}, {"measurement": "Kd", "setting": "[1]; read-out: Kd / affinity for UGMmyco", "result": 0.3, "unit": "µM"}, {"measurement": "Kd", "setting": "[2]; [9]", "result": "0.385 ± 0.035", "unit": "µM"}, {"measurement": "Kd", "setting": "[2]; Kd / affinity for UGMkleb", "result": 0.38, "unit": "µM"}]}
{"compound": "UDP-hexanolamine-fluorescein conjugate [Compound 5c]", "values": [{"measurement": "Kd", "setting": "[1]; [7]", "result": 0.17, "unit": "µM"}, {"measurement": "Kd", "setting": "[1]; [8]", "result": "0.166 ± 0.014", "unit": "µM"}, {"measurement": "Kd", "setting": "[3]", "result": 160, "unit": "nM"}, {"measurement": "Kd", "setting": "[4]", "result": 100, "unit": "nM"}, {"measurement": "Kd", "setting": "[2]; [6]", "result": "0.193 ± 0.011", "unit": "µM"}]}
{"compound": "UDP-decanolamine-fluorescein conjugate [Compound 5e]", "values": [{"measurement": "Kd", "setting": "[1]; [7]", "result": 0.064, "unit": "µM"}, {"measurement": "Kd", "setting": "[1]; [8]", "result": "0.064 ± 0.004", "unit": "µM"}, {"measurement": "Kd", "setting": "[2]; [6]", "result": "0.07 ± 0.002", "unit": "µM"}]}
{"compound": "Uridine 5′-diphosphooctanolamine, ammonium salt [Compound 4d]", "values": [{"measurement": "Kd", "setting": "[1]; [8]", "result": "32 ± 3.4", "unit": "µM"}, {"measurement": "Kd", "setting": "[2]; [6]", "result": "37.7 ± 1.5", "unit": "µM"}]}
